Tested on: AsPC-1 cells
Test: AsPC-1 TGI-70 xenograft tumor volume study
Type: in vivo, nude/nude mice
Conditions: for Average Tumor Volumes: MRTX0902 50 mg/kg BID daily, alone or combined, 5 mice per group
From the text: Experimental Procedures. 20 nude/nude mice were inoculated with AsPC-1 cells in the right hind flank. When the tumors reached ˜200 mm^3 four treatment groups were established with five mice per group.

| Structure (SMILES) | tumor growth inhibition (Day 13, MRTX0902 50 mg/kg BID daily as a single agent) [%] | Average Tumor Volumes (Study Day 1, MRTX1133 30 mg/kg BID daily) [mm^3] | Average Tumor Volumes (Study Day 6, MRTX1133 30 mg/kg BID daily) [mm^3] | Average Tumor Volumes (Study Day 9, MRTX1133 30 mg/kg BID daily) [mm^3] | Average Tumor Volumes (Study Day 13, MRTX1133 30 mg/kg BID daily) [mm^3] | Average Tumor Volumes (Study Day 16, MRTX1133 30 mg/kg BID daily) [mm^3] | Average Tumor Volumes (Study Day 20, MRTX1133 30 mg/kg BID daily) [mm^3] | Average Tumor Volumes (Study Day 23, MRTX1133 30 mg/kg BID daily) [mm^3] | tumor regression (Day 13, MRTX1133 30 mg/kg BID daily, alone or with MRTX0902 twice daily) [%] |
| --- | --- | --- | --- | --- | --- | --- | --- | --- | --- |
| Cc1c(C#N)cccc1[C@@H](C)Nc1nnc(C)c2cnc(N3CCOCC3)cc12 [MRTX0902] | 26 | 194.8 | 215.066 | 220.892 | 262.374 | 316.164 | 387.59 | 480.782 |  |
| C#Cc1c(F)ccc2cc(O)cc(-c3ncc4c(N5C[C@H]6CC[C@@H](C5)N6)nc(OC[C@@]56CCCN5C[C@H](F)C6)nc4c3F)c12 [MRTX1133, 4-(4-((1R,5S)-3,8-diazabicyclo[3.2.1]octan-3-yl)-8-fluoro-2-(((2R,7aS)-2-fluorohexahydro-1H-pyrrolizin-7a-yl)methoxy)pyrido[4,3-d]pyrimidin-7-yl)-5-ethynyl-6-fluoronaphthalen-2-ol] |  |  |  |  |  |  |  |  | 26 |

From patent US20250000863A1, “COMBINATION THERAPIES OF KRAS G12D INHIBITORS WITH SOS1 INHIBITORS” (MIRATI THERAPEUTICS, INC., priority 2021, published 2025)
